Data as given in US11279744B2, “Neuropeptide Y fragment capable of releasing hematopoietic stem cells into blood and treating osteoporosis” (Kyungpook National University Industry-Academic Cooperation …, priority 2017, dated 2022).
No end group written: not given here.

Experiments:
[1] = system: hematopoietic stem cell adhesion factors (Sdf-1a, KitI, Angpt1) present in osteoblasts; test: expression of hematopoietic stem cell adhesion factors in osteoblasts, real-time quantitative PCR; type: cell-based, mouse; conditions: 10 nM peptide for 3 days; compared to osteoblasts (control) not treated with peptides; fold change
Method: All mice used in the experiment were 6 to 8 weeks old mice, C57BL/6 mice, and purchased from Jackson Laboratory (Bar Harbor, Me., USA). NPY (21-28) (SEQ ID NO: 1), NPY (24-31) (SEQ ID NO: 2), NPY (29-36) (SEQ ID NO: 3), NPY D25 (21-28) (SEQ ID NO: 4), NPY D26 (21-28) (SEQ ID NO: 5), NPY D25, 26 (21-28) (SEQ ID NO: 6), NPY (21-36) (Osteopep2) (SEQ ID NO: 7) were prepared from Anygen. Full length NPY (SEQ ID NO: 8) was purchased from Bachem. 10 nM of each peptide was diluted in each medium and injected for in vitro experiments. The NPY D^25(21-28) refers to a peptide in which arginine, the fifth amino acid of the amino acid sequence of NPY (21-28), is modified to D-type, the NPY D^26(21-28) refers to a peptide in which the sixth amino acid histidine is modified to D-form, and the D^25,26(21-28) refers to a peptide in which both the fifth and sixth amino acids are modified to D-form, respectively.
Four to six weeks old C57BL/6 mice were sacrificed after anesthesia, and then tibias and femurs were dissected. Bone marrow was harvested from tibias and femurs and single cell suspensions were obtained using a 40 μm cell strainer (Becton-Dickinson LAβware, Franklin Lakes, N.J.). Approximately […] were dispensed into 75-cm 2 flasks containing mesenchymal stem cells Stimulatory Supplements with antibiotics (Stem Cell Technologies, Inc) and MesenCult™ MSCBasal medium. The cells were incubated for 1 week and further incubated for 3 weeks with StemXVivo Osteogenic/Adipogenic Base Media (R & D systems) supplemented with StemXVivo Osteogenic supplement (20×) and penicillin-streptomycin (100×) for differentiation into osteoblasts.
Real-time quantitative PCR was used to measure expression levels of hematopoietic stem cell adhesion factors (Sdf-1a, KitI, Angpt1) present in osteoblasts. Total RNA was extracted from cell eluate and bone marrow cells using the RNeasy Plus mini kit (Qiagen, Korea, Ltd), and cDNAs were synthesized from 5 μg total RNA using a kit in Clontech (Mountain View, Calif.). In addition, using a Corbett research RG-6000 real-time PCR instrument, Real-time quantitative PCR was performed at 95° C. for 10 minutes; at 95° C., for 10 seconds; at 58° C., for 15 seconds; at 72° C. for 20 seconds as one cycle, and 40 cycles were repeated.
First, bone marrow was harvested from 4 to 6 weeks old C57BL6 mice, and mesenchymal stem cells (BM-MSCs) in bone marrow were collected, and then cultured for 3 weeks in osteoblast differentiation induction medium for the differentiation into osteoblasts. After 28 days, each peptide was treated with 10 nM for 3 days, and bone cells were collected and examined for expression levels of three adhesion factors by real-time quantitative PCR. Osteopep2 and its parent NPY were used as positive controls.

[2] = system: animal models of osteoporosis; test: Micro CT bone density in animal models of osteoporosis; type: in vivo, mouse; conditions: OVX mice, 50 μg/kg i.p. twice a day for 4 weeks; femur microCT; compared to PBS
Method: To make an osteoporosis model, 10-18 12 weeks old female mice per group underwent ovarian ablation. A week later, 50 μg/kg of NPY(21-28), NPY D^25(21-28), NPY D^26(21-28), NPY D^25,26(21-28), Osteopep2, NPY and 100 μl of PBS(Gibco) were intraperitoneally administered twice a day for 4 weeks at 12 hour intervals. Alendronate (Sigma), used as a competitive drug, was intraperitoneally administered once a week for 4 weeks at a dose of 50 μg/kg. As a control group, only Sham model of osteoporosis was performed by subcutaneous dissection of female mouse. Mice were placed in experimental groups using the Block randomization method, and all mouse experiments were approved through the Kyungpook National University Institutional Animal Care and Use Committee. The femurs were separated from the mouse and refrigerated in 80% ethanol, and in order to measure change of bone density, the bone volume/total volume and trabecular thickness were measured by analyzing the area between 0.7 mm and 2.3 mm from the growth plate baseline with the Quantum FX microCT Imaging System. Femurs were separated from mice after the last administration of NPY (21-28) at 4 weeks. To determine the change of bone density, bone density (bone volume/total volume) and bone tissue thickness (trabecular thickness) were measured with the Quantum FX microCT Imaging System. Femurs were separated from mice after the last administration of NPY D^25(21-28), NPY D^26(21-28), and NPY D^25,26(21-28) at 4 weeks. To determine the change of bone density, bone density (bone volume/total volume) and bone tissue thickness (trabecular thickness) were measured with the Quantum FX microCT Imaging System.

[3] = system: osteoclasts in bone marrow; test: TRAP staining of osteoclasts in bone marrow of osteoporosis animal models; type: in vivo, mouse; conditions: OVX mice, 50 μg/kg i.p. twice a day for 4 weeks; compared to PBS
Method: To make an osteoporosis model, 10-18 12 weeks old female mice per group underwent ovarian ablation. A week later, 50 μg/kg of NPY(21-28), NPY D^25(21-28), NPY D^26(21-28), NPY D^25,26(21-28), Osteopep2, NPY and 100 μl of PBS(Gibco) were intraperitoneally administered twice a day for 4 weeks at 12 hour intervals. Alendronate (Sigma), used as a competitive drug, was intraperitoneally administered once a week for 4 weeks at a dose of 50 μg/kg. As a control group, only Sham model of osteoporosis was performed by subcutaneous dissection of female mouse. Mice were placed in experimental groups using the Block randomization method, and all mouse experiments were approved through the Kyungpook National University Institutional Animal Care and Use Committee.
The femurs were separated from the mice and fixed in 4% paraformaldehyde for 24 hours, and tissue was decalcified in 10% EDTA for 5 weeks. It was then dehydrated with a series of diluted alcohols, paraffinized, and prepared into […] paraffin sections.
For TRAP staining, sections were deparaffinized, stained with 1.33 mM Fast Red Violet LB Salt (Sigma-Aldrich) in 50 mM sodium acetate (pH 5.0) containing 225 μM Naphthol AS-MX phosphate (Sigma-Aldrich, St Louis, Mo., USA), 0.84% N, N-dimethylformamide (Sigma-Aldrich) and 50 mM sodium tartrate, and incubated for 30 minutes. After incubation, the sections were washed with distilled water and counterstained with 1% methyl green.
Histomorphometric analysis was performed using the OsteoMeasure program (Extensive interactive Bone Histomorphometry Analysis System).
After the last administration at 4 weeks of NPY (21-28), the femurs were separated from the mice and the number of osteoclasts in the bone marrow was measured by TRAP staining.
After the last administration at 4 weeks of NPY D^25(21-28), NPY D^26(21-28), and NPY D^25,26(21-28), the femurs were separated from the mice and the number of osteoclasts in the bone marrow was measured by TRAP staining.

For “NPY (24-31): recombinant peptide consisting of eight amino acids of NPY, SEQ ID NO: 2 (LRHYINLI; synthetic neuropeptide Y fragment (24-31))”, the “expression levels of Sdf-1a, KitI, and Angpt1 in osteoblasts” value [1] was “decreased only in osteoblasts treated with NPY (21-28)”.

“NPY (29-36): recombinant peptide consisting of eight amino acids of NPY, SEQ ID NO: 3 (NLITRQRY; ends and bridges not checked)” was tested, and the “expression levels of Sdf-1a, KitI, and Angpt1 in osteoblasts” value [1] was “decreased only in osteoblasts treated with NPY (21-28)”.

For “NPY: full length neuropeptide Y purchased from Bachem, used as positive control [reference compound]”, the “bone tissue thickness (trabecular thickness)” value [2] was “increased”, the “percentage of bone density (BV/TV)” value [2] was “increased” and the “number of TRAP positive osteoclasts in bone marrow (Number of osteoclast/Bone surface)” value [3] was “reduced”. The “osteoclast surface (Osteoclast surface/Bone surface)” value [3] was “reduced”.
